Source: PubChem BioAssay AID256 (DTP/NCI, 2004)
Several values for one entry are separate records, joined by “and”; a condition that tells them apart may be missing. Equal values may be shown once. Toxic doses and inconclusive results are not listed. The calls were made as follows: active = survival T/C of 150% or more; inactive = T/C below 125% in these data.

Tested on: CD2F1 mice, L1210 leukemia ip, survival T/C
Experiment: NCI In Vivo Anticancer Drug Screen. Data for tumor model L1210 Leukemia (intraperitoneal) in CD2F1 (CDF1) mice
Settings: higher = longer survival
How it was run: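 Vehicle-treated tumor-bearing mice served as controls (C) for compound-treated mice (T). Reported figure is T divided by C.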

[1] = endpoint: mean survival time, dose: 100.0 mg/kg/injection, schedule: Q01DX009 (ip), vehicle: saline with Tween-80
[2] = endpoint: mean survival time, dose: 100.0 mg/kg/injection, schedule: Q04DX002 (ip), vehicle: saline with Tween-80
[3] = endpoint: mean survival time, dose: 100.0 mg/kg/injection, schedule: Q04DX003 (ip), vehicle: saline with Tween-80
[4] = endpoint: mean survival time, dose: 200.0 mg/kg/injection, schedule: Q01DX009 (ip), vehicle: saline with Tween-80
[5] = endpoint: mean survival time, dose: 200.0 mg/kg/injection, schedule: Q04DX002 (ip), vehicle: saline with Tween-80
[6] = endpoint: mean survival time, dose: 200.0 mg/kg/injection, schedule: Q04DX003 (ip), vehicle: saline with Tween-80
[7] = endpoint: mean survival time, dose: 400.0 mg/kg/injection, schedule: Q01DX009 (ip), vehicle: saline with Tween-80
[8] = endpoint: mean survival time, dose: 400.0 mg/kg/injection, schedule: Q04DX002 (ip), vehicle: saline with Tween-80
[9] = endpoint: mean survival time, dose: 400.0 mg/kg/injection, schedule: Q04DX003 (ip), vehicle: saline with Tween-80
[10] = endpoint: mean survival time, dose: 6.25 mg/kg/injection, schedule: Q04DX003 (ip), vehicle: distilled water + Tween-80
[11] = endpoint: mean survival time, dose: 12.5 mg/kg/injection, schedule: Q04DX003 (ip), vehicle: distilled water + Tween-80
[12] = endpoint: mean survival time, dose: 25.0 mg/kg/injection, schedule: Q04DX003 (ip), vehicle: distilled water + Tween-80
[13] = endpoint: mean survival time, dose: 50.0 mg/kg/injection, schedule: Q04DX003 (ip), vehicle: distilled water + Tween-80
[14] = endpoint: mean survival time, dose: 100.0 mg/kg/injection, schedule: Q01DX009 (ip), vehicle: saline

Measured: T/C

O=C/C=C/C=O
inactive: endpoint: mean survival time, dose: 3.13 mg/kg/injection, schedule: Q01DX001 (ip), vehicle: suspension in saline 98 % of control | endpoint: mean survival time, dose: 6.25 mg/kg/injection, schedule: Q01DX001 (ip), vehicle: saline with Tween-80 106 % of control | endpoint: mean survival time, dose: 6.25 mg/kg/injection, schedule: Q01DX001 (ip), vehicle: suspension in saline 104 % of control | endpoint: mean survival time, dose: 12.5 mg/kg/injection, schedule: Q01DX001 (ip), vehicle: saline with Tween-80 122 % of control | endpoint: mean survival time, dose: 12.5 mg/kg/injection, schedule: Q01DX001 (ip), vehicle: suspension in saline 101 % of control | endpoint: mean survival time, dose: 25.0 mg/kg/injection, schedule: Q01DX001 (ip), vehicle: suspension in saline 101 % of control

COc1cc([N+](=O)[O-])ccc1NC(=O)NCCc1ccccc1
inactive: endpoint: mean survival time, dose: 100.0 mg/kg/injection, schedule: Q01DX001 (ip), vehicle: saline with Tween-80 86 % of control and 97 % of control | [1] 90 % of control and 91 % of control | [2] 95 % of control | [3] 89 % of control | endpoint: mean survival time, dose: 200.0 mg/kg/injection, schedule: Q01DX001 (ip), vehicle: saline with Tween-80 86 % of control and 91 % of control | [4] 91 % of control and 103 % of control | [5] 95 % of control | [6] 91 % of control | endpoint: mean survival time, dose: 400.0 mg/kg/injection, schedule: Q01DX001 (ip), vehicle: saline with Tween-80 91 % of control | [7] 90 % of control and 91 % of control | [8] 90 % of control | [9] 89 % of control

Cc1ccc([NH-])cc1C.Cc1ccc([NH-])cc1C.[Cl][Pt+2][Cl]
inactive: endpoint: mean survival time, dose: 3.12 mg/kg/injection, schedule: Q04DX003 (ip), vehicle: distilled water + Tween-80 103 % of control | [10] 103 % of control | [11] 108 % of control | [12] 106 % of control | [13] 108 % of control

COC(=O)c1cccc(O)c1O
inactive: endpoint: mean survival time, dose: 100.0 mg/kg/injection, schedule: Q04DX002 (ip), vehicle: other 98 % of control | endpoint: mean survival time, dose: 200.0 mg/kg/injection, schedule: Q04DX002 (ip), vehicle: other 92 % of control | endpoint: mean survival time, dose: 400.0 mg/kg/injection, schedule: Q04DX002 (ip), vehicle: other 95 % of control

Oc1ccccc1C=NCCC[N-]CCCN=Cc1ccccc1O.[Co]
inactive: endpoint: mean survival time, dose: 6.25 mg/kg/injection, schedule: Q01DX009 (ip), vehicle: saline 102 % of control and 103 % of control | endpoint: mean survival time, dose: 12.5 mg/kg/injection, schedule: Q01DX009 (ip), vehicle: saline 100 % of control and 103 % of control | endpoint: mean survival time, dose: 25.0 mg/kg/injection, schedule: Q01DX009 (ip), vehicle: saline 110 % of control and 111 % of control | endpoint: mean survival time, dose: 50.0 mg/kg/injection, schedule: Q01DX009 (ip), vehicle: saline 113 % of control and 100 % of control | [14] 104 % of control

CC(=N\O)/C(C)=N/O.CC(=N\O)/C(C)=N/O.O.[CH3-].[Co]
inactive: endpoint: mean survival time, dose: 25.0 mg/kg/injection, schedule: Q04DX003 (ip), vehicle: Klucel (hydroxypropylcellulose) (HPC) 95 % of control | endpoint: mean survival time, dose: 50.0 mg/kg/injection, schedule: Q04DX003 (ip), vehicle: Klucel (hydroxypropylcellulose) (HPC) 95 % of control

Nc1ncnc2snnc12
inactive: endpoint: mean survival time, dose: 100.0 mg/kg/injection, schedule: Q01DX001 (ip), vehicle: Klucel (hydroxypropylcellulose) (HPC) 100 % of control | endpoint: mean survival time, dose: 200.0 mg/kg/injection, schedule: Q01DX001 (ip), vehicle: Klucel (hydroxypropylcellulose) (HPC) 96 % of control | endpoint: mean survival time, dose: 400.0 mg/kg/injection, schedule: Q01DX001 (ip), vehicle: Klucel (hydroxypropylcellulose) (HPC) 100 % of control

CCOP(=S)(OCC)N1CC1
inactive: [2] 104 % of control | [5] 93 % of control | [8] 89 % of control

O.O=C(O)CN(CCN(CC(=O)O)CC(=O)O)CC(=O)O.[Rh+2]
inactive: [14] 100 % of control | endpoint: mean survival time, dose: 200.0 mg/kg/injection, schedule: Q01DX009 (ip), vehicle: saline 94 % of control | endpoint: mean survival time, dose: 200.0 mg/kg/injection, schedule: Q04DX003 (ip), vehicle: saline sonified 95 % of control | endpoint: mean survival time, dose: 400.0 mg/kg/injection, schedule: Q01DX009 (ip), vehicle: saline 96 % of control

COC(=O)C1C2CC(C3OC23)C1C(=O)OC (stereo unspecified)
inactive: [1] 100 % of control | [3] 97 % of control | [4] 115 % of control | [6] 89 % of control | [7] 102 % of control | [9] 103 % of control

O=S(=O)(Nc1ccc2ccccc2c1)c1ccccc1
inactive: [1] 98 % of control | endpoint: mean survival time, dose: 100.0 mg/kg/injection, schedule: Q04DX003 (ip), vehicle: saline 104 % of control | [4] 98 % of control | endpoint: mean survival time, dose: 200.0 mg/kg/injection, schedule: Q04DX003 (ip), vehicle: saline 101 % of control | [7] 98 % of control | endpoint: mean survival time, dose: 400.0 mg/kg/injection, schedule: Q04DX003 (ip), vehicle: saline 96 % of control

O=C(NCCCN1CCOCC1)c1ccc(C(=O)NCCCN2CCOCC2)cc1
inactive: endpoint: mean survival time, dose: 100.0 mg/kg/injection, schedule: Q01DX001 (ip), vehicle: saline 95 % of control | endpoint: mean survival time, dose: 200.0 mg/kg/injection, schedule: Q01DX001 (ip), vehicle: saline 98 % of control | endpoint: mean survival time, dose: 400.0 mg/kg/injection, schedule: Q01DX001 (ip), vehicle: saline 101 % of control

CN(C)c1ccc(/C=N/NC(=O)c2ccccc2N)c(Cl)c1
inactive: [1] 87 % of control | [4] 87 % of control

N#Cc1c(Cl)cc(C2(O)C3C=CC2CC3)cc1Cl (stereo unspecified)
inactive: endpoint: median survival time, dose: 25.0 mg/kg/injection, schedule: Q04DX002 (ip), vehicle: saline with Tween-80 112 % of control | endpoint: median survival time, dose: 50.0 mg/kg/injection, schedule: Q04DX002 (ip), vehicle: saline with Tween-80 100 % of control | endpoint: median survival time, dose: 100.0 mg/kg/injection, schedule: Q04DX002 (ip), vehicle: saline with Tween-80 100 % of control | endpoint: median survival time, dose: 200.0 mg/kg/injection, schedule: Q04DX002 (ip), vehicle: saline with Tween-80 112 % of control

CC(O)(P(=O)(O)O)P(=O)(O)O.[NH-]CC[NH-].[NH-]CC[NH-].[Pt+2].[Pt+2]
inactive: endpoint: mean survival time, dose: 3.13 mg/kg/injection, schedule: Q04DX003 (ip), vehicle: distilled water + Tween-80 104 % of control | [10] 104 % of control | [11] 88 % of control | [12] 103 % of control | [13] 119 % of control | endpoint: mean survival time, dose: 100.0 mg/kg/injection, schedule: Q04DX003 (ip), vehicle: distilled water + Tween-80 124 % of control | endpoint: mean survival time, dose: 200.0 mg/kg/injection, schedule: Q04DX003 (ip), vehicle: distilled water + Tween-80 111 % of control

O=C1C=C(O)c2cc(Br)ccc2C1=O.[Ag]
inactive: endpoint: mean survival time, dose: 25.0 mg/kg/injection, schedule: Q04DX002 (ip), vehicle: saline 106 % of control | endpoint: mean survival time, dose: 50.0 mg/kg/injection, schedule: Q04DX002 (ip), vehicle: saline 113 % of control | endpoint: mean survival time, dose: 100.0 mg/kg/injection, schedule: Q04DX002 (ip), vehicle: saline 97 % of control

CCOC(=O)/C(C#N)=C1\CCc2cc(OC)ccc21
inactive: [1] 92 % of control | [3] 103 % of control | [4] 93 % of control | [6] 92 % of control | [7] 92 % of control | [9] 98 % of control

O=[As](O)(CC(O)COc1ccccc1)c1cccc(Cl)c1 (stereo unspecified)
inactive: endpoint: mean survival time, dose: 6.25 mg/kg/injection, schedule: Q04DX003 (ip), vehicle: saline with Tween-80 103 % of control | endpoint: mean survival time, dose: 12.5 mg/kg/injection, schedule: Q04DX003 (ip), vehicle: saline with Tween-80 107 % of control | endpoint: mean survival time, dose: 25.0 mg/kg/injection, schedule: Q04DX003 (ip), vehicle: saline with Tween-80 100 % of control

CCOC(=O)NC(=O)CC#N
inactive: [3] 101 % of control | [6] 93 % of control | [9] 103 % of control
